Experimental data from PMC6482291, “Anticonvulsant Activity of Pterostilbene in Zebrafish and Mouse Acute Seizure Tests” (Neurochemical Research, 2019).
Like-named read-outs stand apart in the source and are kept apart here.

Experiment: Determination of PTE in mouse serum and brain tissue and pharmacokinetic analysis
Assay type: in vivo
Conditions: mice, 50 mg/kg ip; for Kp: brain/serum, ip, 50 mg/kg; for concentration at 15 min / concentration at 30 min / concentration at 60 min / concentration at 120 min / concentration at 240 min: mean ± SEM; for MRT: read-out: MRT (mean residence time); for half-life: read-out: t0.5 λz (terminal half-life) (converted); for Tmax: read-out: time of peak concentration following dosing (converted); for k el: read-out: λz (terminal elimination rate constant) (converted)
Procedure: In order to isolate PTE from biological samples, brains were homogenized in distilled water (1:4, w/v) with a tissue homogenizer TH220 (Omni International, Inc., Warrenton, VA, USA). Aliquots of 0.2–0.3 ml of serum or 0.5–1 ml of brain homogenate were spiked with 10 µl of internal standard (IS) solution containing clonazepam at concentration of 10 µg/ml and vortexed (Reax top, Heidolph, Germany) for 10 s. Both serum samples and brain homogenates were extracted with 3 ml of a mixture of ethyl acetate:hexane (30:70, v/v) for 20 min on a shaker (VXR Vibrax, IKA, Germany). After centrifugation (Universal 32, Hettich, Germany) at 3000 rpm for 15 min, the organic layers ware transferred to new tubes and evaporated to dryness at 37 °C under a gentle stream of nitrogen. The residues were dissolved in 100 µl of methanol and aliquots of 10–50 µl of the solution were injected into the HPLC system. The analysis was performed on a 250 × 4.6 mm LiChrospher®100 RP-18 column with a particle size of 5 µm (Merck, Darmstadt, Germany) protected with a guard column (4 × 4 mm) with the same packing material. The mobile phase was composed of deionized water and acetonitrile mixed at a ratio of 50:50 (v/v) and pumped at a flow rate of 1 ml/min. The column temperature was maintained at 21 °C. The HPLC system (Merck-Hitachi, Darmstadt, Germany) consisted of an L-7100 isocratic pump, an L-7200 autosampler, and a UV variable-wavelength K-2600 detector (Knauer, Berlin, Germany) operating at 321 nm. D-7000 HSM software was used for data acquisition and processing. In these conditions, the retention times of IS and PTE were approximately 5.3 and 12.8 min. The calibration curve constructed by plotting the ratio of the peak area of PTE to IS vs PTE concentrations was linear in the tested concentration ranges. The limit of quantification of the analytical method was 5 ng/ml (or ng/g tissue). […] The extraction efficiencies of PTE and IS were higher than 90%.
Serum and total brain concentrations of PTE were determined in groups consisted of 8 animals. Pharmacokinetic parameters were calculated using non-compartmental analysis in Phoenix WinNonlin v. 7.0 (Pharsight Corporation, a Certara Company, Princeton, NJ, USA).

[1] = mouse, brain, read-out: Concentration of PTE in brain tissue
[2] = mouse, serum, read-out: Concentration of PTE in serum

For COc1cc(/C=C/c2ccc(O)cc2)cc(OC)c1 [PTE, trans-3,5-dimethoxy-4′-hydroxy-trans-stilbene], the “AUC0–24” value (brain) was 11.64 µg·h/g, the Kp (mouse, read-out: brain-to-serum AUC ratio) was 5.15 and the Kp (mouse, read-out: brain-to-serum Cmax ratio) was 6. The concentration at 15 min [1] was 13100 ± 1820 ng/g, the concentration at 30 min [1] was 9920 ± 1100 ng/g and the concentration at 60 min [1] was 3500 ± 440 ng/g. The concentration at 120 min [1] was 820 ± 140 ng/g, the concentration at 240 min [1] was 180 ± 60 ng/g and the concentration at 15 min [2] was 1760 ± 230 ng/mL. The concentration at 30 min [2] was 1080 ± 160 ng/mL, the concentration at 60 min [2] was 550 ± 70 ng/mL and the concentration at 120 min [2] was 210 ± 30 ng/mL. The concentration at 240 min [2] was 100 ± 60 ng/mL, the Cmax (mouse, brain) was 13100 ng/g and the MRT (mouse, brain) was 1.09 h. For the same molecule, the half-life (mouse, brain) was 1.82 h, the Tmax (mouse, brain) was 0.25 h and the k el (mouse, brain) was 0.000106 s⁻¹. For the same molecule, the Cmax (mouse, serum) was 2190 ng/mL, the AUC(0-t) (mouse, serum, read-out: AUC0–24) was 2260 ng·h/mL and the MRT (mouse, serum) was 2.62 h. It also gave a half-life (mouse, serum) of 2.64 h, a Tmax (mouse, serum) of 0.25 h and a k el (mouse, serum) of 7.22e-05 s⁻¹.
